The record followed here is patent publication US10077243B2, “Compounds for treating disorders mediated by metabotropic glutamate receptor 5, and methods of use thereof” (Sunovion Pharmaceuticals Inc., priority 2009, dated 2018).

Each structure is given as a SMILES string.

For the assay, the target named is T1, human mGluR5 (Homo sapiens, UniProt P41594).
T1 construct: expressed in transfected cells; host or cells: HEK293 cells stably expressing rat GLAST (EAAT1), stably transfected with pcDNAzeo3.1 carrying synthetic human mGluR5 DNA; zeocin-selected single clones
T1 sequence (P41594 21-1212): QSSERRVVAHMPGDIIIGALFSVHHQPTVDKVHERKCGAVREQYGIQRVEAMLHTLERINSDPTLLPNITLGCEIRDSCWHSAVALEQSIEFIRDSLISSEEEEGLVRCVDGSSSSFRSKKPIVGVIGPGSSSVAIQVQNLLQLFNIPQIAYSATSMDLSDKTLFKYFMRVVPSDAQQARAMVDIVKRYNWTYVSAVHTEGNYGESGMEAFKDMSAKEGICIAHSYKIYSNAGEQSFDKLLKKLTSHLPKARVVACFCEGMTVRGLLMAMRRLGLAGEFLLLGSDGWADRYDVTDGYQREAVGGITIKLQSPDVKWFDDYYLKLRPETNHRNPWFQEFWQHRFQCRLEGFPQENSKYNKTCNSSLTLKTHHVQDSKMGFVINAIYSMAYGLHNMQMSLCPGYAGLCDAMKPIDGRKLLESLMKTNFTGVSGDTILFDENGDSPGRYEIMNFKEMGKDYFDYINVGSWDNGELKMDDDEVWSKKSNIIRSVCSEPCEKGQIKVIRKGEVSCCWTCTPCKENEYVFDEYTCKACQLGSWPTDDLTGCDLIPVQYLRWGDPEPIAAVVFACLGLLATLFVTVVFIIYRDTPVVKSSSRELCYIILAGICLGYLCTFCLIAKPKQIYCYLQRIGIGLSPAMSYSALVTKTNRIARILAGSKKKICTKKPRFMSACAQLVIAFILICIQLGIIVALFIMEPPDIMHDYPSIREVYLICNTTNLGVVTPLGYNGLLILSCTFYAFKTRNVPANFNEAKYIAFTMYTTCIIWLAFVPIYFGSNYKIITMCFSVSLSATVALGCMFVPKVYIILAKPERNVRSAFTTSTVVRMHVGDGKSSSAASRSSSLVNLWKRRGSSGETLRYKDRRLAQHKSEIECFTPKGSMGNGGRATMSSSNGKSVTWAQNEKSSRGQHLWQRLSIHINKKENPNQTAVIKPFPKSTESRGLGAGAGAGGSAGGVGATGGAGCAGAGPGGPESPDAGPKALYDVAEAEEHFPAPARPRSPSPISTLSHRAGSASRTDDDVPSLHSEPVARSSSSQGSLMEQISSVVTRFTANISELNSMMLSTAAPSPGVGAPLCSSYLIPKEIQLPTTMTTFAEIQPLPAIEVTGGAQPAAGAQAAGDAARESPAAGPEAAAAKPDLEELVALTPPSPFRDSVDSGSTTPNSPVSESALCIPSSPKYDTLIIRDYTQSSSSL
In words: In vitro cell-based FLIPR calcium assay for positive modulation of the activation of mGluR5 by glutamate (PAM EC50). To be noted: HEK293/GLAST cells expressing recombinant human mGluR5; FLIPR calcium signal; glutamate added at its EC20; read-out: mGluR5 PAM EC50. The source says:
The DNA sequences encoding the structural regions for rat mGluR5 [Abe T, Sugihara H, Nawa H, Shigemoto R, Mizuno N, Nakanishi S (1992) “Molecular characterization of a novel metabotropic glutamate receptor mGluR5 coupled to inositol phosphate/Ca^2+ signal transduction” Journal of Biological Chemistry vol. 267, no. 19, pp. 13361-8] and human mGluR5 [Daggett L P, Sacaan A I, Akong M, Rao S P, Hess S D, Liaw C, Urrutia A, Jachec C, Ellis S B, Dreessen J, Knöpfel T, Landwehrmeyer G B, Testa C M, Young A B, Varney M, Johnson E C, Veliçelebi (1995) “Molecular and functional characterization of recombinant human metabotropic glutamate receptor subtype 5” Neuropharmacology vol. 34, no. […] 53, no. 3, pp. 355-369] was obtained from Dr. Michael Robinson of the Children's Hospital of Philadelphia under a Material Transfer Agreement. The pcDNAzeo3.1 vector DNA, carrying either rat mGluR5 or human mGluR5, was used to transfect a sample of the HEK293/GLAST cells, and single clones that express mGluR5 were isolated from the transfected cells using zeocin selection. Expression of mGluR5 was assessed by measurement of the transient fluorescence signal elicited from HEK293/GLAST/mGluR5 cells by glutamate following the loading of the cells with a calcium-sensitive dye using a FLIPR Tetra (Fluorometric Imaging Plate Reader) (Molecular Devices, Sunnyvale, Calif.) [O'Brien J A, Lemaire W, Chen T B, Chang R S, Jacobson M A, Ha S N, Lindsley C W, Schaffhauser H J, Sur C, Pettibone D J, Conn P J, Williams D L Jr. […] 64, no. 3, pp. 731-740; Assay Guidance Manual Version 5.0, 2008, Eli Lilly and Company and NIH Chemical Genomics Center; available online HEK293/GLAST/mGluR5 cells were grown in Dulbecco's Modified Eagle Medium (DMEM) supplemented with 10% dialyzed fetal bovine serum, 20 millimolar (mM) N-2-hydroxyethylpiperazine-N′-2-ethanesulfonic acid (HEPES), penicillin, streptomycin, 1% GlutaMax™ (Invitrogen) and 50 μg/ml zeocin. Cells were grown in the media to 70-80% confluency at 37° C. under 5% CO2, 95% humidity in poly-D-lysine coated coated flasks. Cells for assays were plated into 96-well sterile standard microtiter plates (pre-coated with poly-D-lysine) at a density of 50,000 cells per well in 0.2 milliliters of media. Plated cells were allowed to settle and adhere for 30 minutes at ambient conditions, and then were incubated overnight at 37° C. under 5% CO2, 95% humidity. Several such 96-well plates were typically prepared. On the day of the assays, the components of the FLIPR calcium 4 assay kit (Molecular Devices) were dissolved according to the instructions of the dye kit's manufacturer in assay buffer (Hank's balanced salt solution (HBSS) (Gibco) supplemented with 20 mM HEPES). After removal of the growth media from the first plate, cells were loaded with calcium dye by addition of calcium dye solution (50 microliters per well) and incubation at 25° C. for 45 to 60 minutes. The first plate was placed into the FLIPR Tetra, and a dilution series of glutamate solutions in assay buffer were added to wells on the plate, followed by acquisition of fluorescence data for several minutes. The fluorescence data (maximal signal as a 4-parameter sigmoidal function of log [glutamate]) were processed by non-linear regression methods using the software package GraphPad Prism 5.01 (GraphPad Software Inc.), to yield a glutamate concentration-response curve (CRC). […] These values were, respectively, the concentrations of glutamate that elicit 20%, 50%, and 80% of the maximal FLIPR signal (observed at saturating [glutamate]). The method for measuring the concentration response of a potentiator, or positive allosteric modulator (PAM), is described here as an example. For that purpose, subsequent assays were typically performed using assay buffer containing a glutamate concentration equal to that day's EC20. […] Addition to certain wells of the same buffer containing 0.3% DMSO, but without any test compound, provided a negative control.
For the compound `O=c1c2ccc(C#Cc3ccccn3)cc2nc2n1CC(CO)C2` (centres unmarked) [Example 3.18, 2-(hydroxymethyl)-6-(pyridin-2-ylethynyl)-2,3-dihydropyrrolo[2,1-b]quinazolin-9(1H)-one], the EC50 lay within 0.1 to 0.3 µM. With `COCC1Cc2nc3cc(C#Cc4ccccn4)ccc3c(=O)n2C1` (centres unmarked) [Example 3.19, 2-(methoxymethyl)-6-(pyridin-2-ylethynyl)-2,3-dihydropyrrolo[2,1-b]quinazolin-9(1H)-one], the EC50 lay within 0.03 to 0.1 µM.

On to `CC1(C)Cc2nc3cc(C#Cc4ccccn4)ccc3c(=O)n2C1` [Example 3.20, 2,2-dimethyl-6-(pyridin-2-ylethynyl)-2,3-dihydropyrrolo[2,1-b]quinazolin-9(1H)-one], for which the EC50 is less than 0.01 µM. Then `O=c1c2ccc(C#Cc3ccccn3)cc2nc2n1CC1(CCOCC1)C2` [Example 3.24, 6′-(pyridin-2-ylethynyl)-2,3,5,6-tetrahydro-1′H-spiro[pyran-4,2′-pyrrolo[2,1-b]quinazolin]-9′(3′H)-one], with 0.01 to 0.03 µM; and `O=c1c2ccc(C#Cc3ccccn3)cc2nc2n1C1CCC2C1` (centres unmarked) [Example 3.25, 3-(pyridin-2-ylethynyl)-8,9-dihydro-6H-6,9-methanopyrido[2,1-b]quinazolin-11(7H)-one], with 0.01 to 0.03 µM. Then `O=c1c2ccc(C#Cc3cccc(F)c3)cc2nc2n1CCOC2` [Example 4.1, 9-((3-fluorophenyl)ethynyl)-3,4-dihydro-[1,4]oxazino[3,4-b]quinzolin-6(1H)-one], with less than 0.01 µM; and `O=c1c2ccc(C#Cc3ccc(F)cc3)cc2nc2n1CCOC2` [Example 4.2, 9-((4-fluorophenyl)ethynyl)-3,4-dihydro-[1,4]oxazino[3,4-b]quinazolin-6(1H)-one], with 0.03 to 0.1 µM. Then `O=c1c2ccc(C#Cc3cccc(F)c3)cc2nc2n1CCCC2` [Example 4.4], with less than 0.01 µM. For `O=c1c2ccc(C#Cc3ccc(F)cc3)cc2nc2n1CCCC2` [Example 4.5, 3-((4-fluorophenyl)ethynyl)-8,9-dihydro-6H-pyrido[2,1-b]quinazolin-11(7H)-one], the EC50 was less than 0.01 µM. The value for `C=CCC1CCCn2c1nc1cc(C#Cc3cccc(F)c3)ccc1c2=O` (centres unmarked) [Example 4.7, 6-allyl-3-((3-fluorophenyl)ethynyl)-8,9-dihydro-6H-pyrido[2,1-b]quinazolin-11(7H)-one] was 0.01 to 0.03 µM. Then `CCC1CCCn2c1nc1cc(C#Cc3cccc(F)c3)ccc1c2=O` (centres unmarked) [Example 4.8, 6-ethyl-3-((3-fluorophenyl)ethynyl)-8,9-dihydro-6H-pyrido[2,1-b]quinazolin-11(7H)-one], with 0.1 to 0.3 µM; and `O=c1c2ccc(C#Cc3cccc(F)c3)cc2nc2n1CCCC2Cc1ccccc1` (centres unmarked) [Example 4.9, 6-benzyl-3-((3-fluorophenyl)ethynyl)-8,9-dihydro-6H-pyrido[2,1-b]quinazolin-11(7H)-one], with 0.1 to 0.3 µM; and `CC1CCn2c(nc3cc(C#Cc4cccc(F)c4)ccc3c2=O)C1` (centres unmarked) [Example 4.10, 3-((3-fluorophenyl)ethynyl)-7-methyl-8,9-dihydro-6H-pyrido[2,1-b]quinazolin-11(7H)-one], with less than 0.01 µM. The value for `CC1CCn2c(nc3cc(C#Cc4ccccn4)ccc3c2=O)C1` (centres unmarked) [Example 4.11, 7-methyl-3-(pyridin-2-ylethynyl)-8,9-dihydro-6H-pyrido[2,1-b]quinazolin-11(7H)-one] was 0.03 to 0.1 µM; that for `CC1CCc2nc3cc(C#Cc4ccccn4)ccc3c(=O)n2C1` (centres unmarked) [Example 4.12, 8-methyl-3-(pyridin-2-ylethynyl)-8,9-dihydro-6H-pyrido[2,1-b]quinazolin-11(7H)-one] was 0.01 to 0.03 µM. Regarding `CC1(C)CCn2c(nc3cc(C#Cc4cccc(F)c4)ccc3c2=O)C1` [Example 4.13, 3-((3-fluorophenyl)ethynyl)-7,7-dimethyl-8,9-dihydro-6H-pyrido[2,1-b]quinazolin-11(7H)-one], the EC50 was less than 0.01 µM. Then `CC1(C)CCc2nc3cc(C#Cc4cccc(F)c4)ccc3c(=O)n2C1` [Example 4.14, 3-((3-fluorophenyl)ethynyl)-8,8-dimethyl-8,9-dihydro-6H-pyrido[2,1-b]quinazolin-11(7H)-one], with less than 0.01 µM. As for `CC1(C)CCn2c(nc3cc(C#Cc4ccccn4)ccc3c2=O)C1` [Example 4.15, 7,7-dimethyl-3-(pyridin-2-ylethynyl)-8,9-dihydro-6H-pyrido[2,1-b]quinazolin-11(7H)-one], the EC50 was less than 0.01 µM. Then `CC1(C)CCc2nc3cc(C#Cc4ccccn4)ccc3c(=O)n2C1` [Example 4.16, 8,8-dimethyl-3-(pyridin-2-ylethynyl)-8,9-dihydro-6H-pyrido[2,1-b]quinazolin-11(7H)-one], with less than 0.01 µM; and `CC1CCCc2nc3cc(C#Cc4cccc(F)c4)ccc3c(=O)n21` (centres unmarked) [Example 4.17, 3-((3-fluorophenyl)ethynyl)-9-methyl-8,9-dihydro-6H-pyrido[2,1-b]quinazolin-11(7H)-one], with 0.01 to 0.03 µM. Then `CC1CCCc2nc3cc(C#Cc4ccccn4)ccc3c(=O)n21` (centres unmarked) [Example 4.18, 9-methyl-3-(pyridin-2-ylethynyl)-8,9-dihydro-6H-pyrido[2,1-b]quinazolin-11(7H)-one], with 0.01 to 0.03 µM; and `CCC1CCCc2nc3cc(C#Cc4ccccn4)ccc3c(=O)n21` (centres unmarked) [Example 4.19, 9-ethyl-3-(pyridin-2-ylethynyl)-8,9-dihydro-6H-pyrido[2,1-b]quinazolin-11(7H)-one], with 0.01 to 0.03 µM; and `O=c1c2ccc(C#Cc3cccc(F)c3)cc2nc2n1CCC=C2` [Example 4.20, 3-((3-fluorophenyl)ethynyl)-8H-pyrido[2,1-b]quinazolin-11(9H)-one], with 0.01 to 0.03 µM.

Consider `O=c1c2ccc(C#Cc3cccc(F)c3)cc2nc2n1CC1(CC2)OCCO1` [Example 4.21, 3′((3-fluorophenyl)ethynyl)-6′,7′-dihydrospiro[[1,3]dioxolane-2,8′-pyrido[2,1-b]quinazolin]-11′(9′H)-one], for which the EC50 lay within 0.01 to 0.03 µM.

Take `O=C1CCc2nc3cc(C#Cc4cccc(F)c4)ccc3c(=O)n2C1` [Example 4.22, 3-((3-fluorophenyl)ethynyl)-6H-pyrido[2,1-b]quinazoline-8,11(7H,9H)-dione]: the 50% effective concentration (EC50) was in the range of 0.03 to 0.1 µM. Then `O=c1c2ccc(C#Cc3cccc(F)c3)cc2nc2n1CC(O)CC2` (centres unmarked) [Example 4.23, 3-((3-fluorophenyl)ethynyl)-8-hydroxy-8,9-dihydro-6H-pyrido[2,1-b]quinazolin-11(7H)-one], with 0.03 to 0.1 µM. Then `O=c1c2ccc(C#Cc3ccccn3)cc2nc2n1CC(O)CC2` (centres unmarked) [Example 4.24, 8-hydroxy-3-(pyridin-2-ylethynyl)-8,9-dihydro-6H-pyrido[2,1-b]quinazolin-11(7H)-one], with 0.3 to 1 µM. As to `COC1CCc2nc3cc(C#Cc4cccc(F)c4)ccc3c(=O)n2C1` (centres unmarked) [Example 4.25, 3-((3-fluorophenyl)ethynyl)-8-methoxy-8,9-dihydro-6H-pyrido[2,1-b]quinazolin-11(7H)-one], the EC50 was less than 0.01 µM. The value for `COC1CCc2nc3cc(C#Cc4ccccn4)ccc3c(=O)n2C1` (centres unmarked) [Example 4.26, 8-methoxy-3-(pyridin-2-ylethynyl)-8,9-dihydro-6H-pyrido[2,1-b]quinazolin-11(7H)-one] was 0.03 to 0.1 µM.

One may read the EC50 as the concentration needed to bring the measured effect to its halfway point.
